# According to PubChem BioAssay (NCI):
#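 GI50 = concentration required for 50% inhibition of growth. TGI marks complete inhibition of growth.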
# What was measured:
# Assay in all cases: NCI-60 cell line screen, 384-well format
# [1] = tested on: BT-549 breast
# [2] = tested on: U251 glioblastoma
# [3] = tested on: RPMI-8226 leukemia
# [4] = tested on: UO-31 renal
# [5] = tested on: CAKI-1 renal
# [6] = tested on: NCI-H23 lung
# [7] = tested on: T-47D breast
# [8] = tested on: OVCAR-8 ovarian
# [9] = tested on: HCT-116 colon
# [10] = tested on: HT29 colon
# [11] = tested on: LOX IMVI melanoma
# [12] = tested on: SNB-19 CNS
# [13] = tested on: COLO 205 colon
# [14] = tested on: OVCAR-5 ovarian
# [15] = tested on: NCI/ADR-RES ovarian
# [16] = tested on: SW-620 colon
# [17] = tested on: SN12C renal
# [18] = tested on: UACC-257 melanoma
# [19] = tested on: HOP-62 NSCLC
# [20] = tested on: SR leukemia
# [21] = tested on: NCI-H226 lung
# [22] = tested on: SK-MEL-2 melanoma
# [23] = tested on: HL-60(TB) leukemia
# [24] = tested on: M14 melanoma
smiles,measurement,setting,value
COCCOc1cc(F)c2c(Nc3ccc(NC(=O)Cn4cc(C(C)C)nn4)cc3)ncnc2c1,GI50,[1],38.4 µM
same,TGI,[1],> 100 µM
same,GI50,[2],57.9 µM
same,TGI,[2],> 100 µM
same,GI50,[3],5.06 µM
same,TGI,[3],34.3 µM
same,GI50,[4],72 µM
same,TGI,[4],> 100 µM
same,GI50,[5],38.4 µM
same,TGI,[5],> 100 µM
same,GI50,[6],35.6 µM
same,TGI,[6],> 100 µM
same,GI50,[7],5.9 µM
same,TGI,[7],> 100 µM
same,GI50,[8],26.7 µM
same,TGI,[8],> 100 µM
same,GI50,[9],48.7 µM
same,TGI,[9],> 100 µM
same,GI50,[10],> 100 µM
same,TGI,[10],> 100 µM
same,GI50,[11],43.6 µM
same,TGI,[11],> 100 µM
same,GI50,[12],> 100 µM
same,TGI,[12],> 100 µM
same,GI50,[13],40.8 µM
same,TGI,[13],> 100 µM
same,GI50,[14],87.8 µM
same,TGI,[14],> 100 µM
same,GI50,[15],> 100 µM
same,TGI,[15],> 100 µM
same,GI50,[16],52 µM
same,TGI,[16],> 100 µM
same,GI50,[17],12.9 µM
same,TGI,[17],> 100 µM
same,GI50,[18],60.6 µM
same,TGI,[18],> 100 µM
same,GI50,[19],18.1 µM
same,TGI,[19],> 100 µM
same,GI50,[20],10.1 µM
same,TGI,[20],41.5 µM
same,GI50,[21],7.16 µM
same,TGI,[21],> 100 µM
same,GI50,[22],66.7 µM
same,TGI,[22],> 100 µM
same,GI50,[23],17.3 µM
same,TGI,[23],37.9 µM
same,GI50,[24],59 µM
